Patent publication US11497752B2, “Compounds and uses thereof” (Foghorn Therapeutics Inc., priority 2018, dated 2022)

What was measured:
[1] = target: BRM (Homo sapiens, UniProt P51531); experiment: ATPase catalytic activity of BRM (ADP-Glo in vitro biochemical assay)
[2] = target: BRG-1 (Homo sapiens, UniProt P51532); experiment: ATPase catalytic activity of BRG-1 (ADP-Glo in vitro biochemical assay)
Chain of BRG-1 (P51532 whole entry): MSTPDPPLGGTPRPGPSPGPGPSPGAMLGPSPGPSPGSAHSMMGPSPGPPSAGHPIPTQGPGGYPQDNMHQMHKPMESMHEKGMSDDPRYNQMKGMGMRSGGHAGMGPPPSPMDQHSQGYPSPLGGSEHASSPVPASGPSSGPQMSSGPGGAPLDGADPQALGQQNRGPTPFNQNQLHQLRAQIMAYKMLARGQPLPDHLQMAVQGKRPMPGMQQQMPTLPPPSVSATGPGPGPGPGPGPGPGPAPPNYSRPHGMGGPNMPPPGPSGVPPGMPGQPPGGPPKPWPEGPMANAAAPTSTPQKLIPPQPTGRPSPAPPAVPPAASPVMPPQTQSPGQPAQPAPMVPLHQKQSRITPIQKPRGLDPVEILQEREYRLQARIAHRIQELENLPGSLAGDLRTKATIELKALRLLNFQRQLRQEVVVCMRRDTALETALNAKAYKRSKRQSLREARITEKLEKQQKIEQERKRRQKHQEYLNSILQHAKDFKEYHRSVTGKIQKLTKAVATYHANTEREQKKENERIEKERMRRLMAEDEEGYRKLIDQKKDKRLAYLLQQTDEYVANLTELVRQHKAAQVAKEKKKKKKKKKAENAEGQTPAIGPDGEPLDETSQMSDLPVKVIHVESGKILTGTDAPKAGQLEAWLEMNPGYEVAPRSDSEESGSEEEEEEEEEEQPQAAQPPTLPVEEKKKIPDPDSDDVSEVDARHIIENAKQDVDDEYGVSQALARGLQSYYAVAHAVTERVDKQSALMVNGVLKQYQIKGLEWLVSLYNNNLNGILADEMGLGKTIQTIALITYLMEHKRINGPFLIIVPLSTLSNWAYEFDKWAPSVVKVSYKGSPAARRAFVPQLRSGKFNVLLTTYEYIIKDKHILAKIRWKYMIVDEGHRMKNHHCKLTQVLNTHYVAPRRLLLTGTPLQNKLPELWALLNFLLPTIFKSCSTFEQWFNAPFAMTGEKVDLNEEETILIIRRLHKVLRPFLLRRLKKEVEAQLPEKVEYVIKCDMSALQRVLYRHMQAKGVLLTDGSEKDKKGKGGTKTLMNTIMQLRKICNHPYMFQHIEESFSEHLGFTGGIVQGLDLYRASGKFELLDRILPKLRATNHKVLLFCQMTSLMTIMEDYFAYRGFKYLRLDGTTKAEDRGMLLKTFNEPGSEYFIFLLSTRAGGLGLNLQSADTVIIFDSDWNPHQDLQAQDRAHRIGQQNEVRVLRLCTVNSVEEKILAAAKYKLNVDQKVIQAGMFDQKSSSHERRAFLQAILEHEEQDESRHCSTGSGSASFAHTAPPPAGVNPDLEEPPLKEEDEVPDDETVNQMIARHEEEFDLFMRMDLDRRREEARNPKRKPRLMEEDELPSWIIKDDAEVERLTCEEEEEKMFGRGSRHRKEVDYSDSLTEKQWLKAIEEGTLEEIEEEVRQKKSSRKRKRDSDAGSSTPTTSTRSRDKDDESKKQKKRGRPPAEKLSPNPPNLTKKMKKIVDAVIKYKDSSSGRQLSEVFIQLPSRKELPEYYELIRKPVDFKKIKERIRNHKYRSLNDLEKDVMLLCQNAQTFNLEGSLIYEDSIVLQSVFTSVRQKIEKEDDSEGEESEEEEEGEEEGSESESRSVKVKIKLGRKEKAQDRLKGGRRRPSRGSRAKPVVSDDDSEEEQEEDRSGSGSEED

Chain of BRM (P51531 whole entry): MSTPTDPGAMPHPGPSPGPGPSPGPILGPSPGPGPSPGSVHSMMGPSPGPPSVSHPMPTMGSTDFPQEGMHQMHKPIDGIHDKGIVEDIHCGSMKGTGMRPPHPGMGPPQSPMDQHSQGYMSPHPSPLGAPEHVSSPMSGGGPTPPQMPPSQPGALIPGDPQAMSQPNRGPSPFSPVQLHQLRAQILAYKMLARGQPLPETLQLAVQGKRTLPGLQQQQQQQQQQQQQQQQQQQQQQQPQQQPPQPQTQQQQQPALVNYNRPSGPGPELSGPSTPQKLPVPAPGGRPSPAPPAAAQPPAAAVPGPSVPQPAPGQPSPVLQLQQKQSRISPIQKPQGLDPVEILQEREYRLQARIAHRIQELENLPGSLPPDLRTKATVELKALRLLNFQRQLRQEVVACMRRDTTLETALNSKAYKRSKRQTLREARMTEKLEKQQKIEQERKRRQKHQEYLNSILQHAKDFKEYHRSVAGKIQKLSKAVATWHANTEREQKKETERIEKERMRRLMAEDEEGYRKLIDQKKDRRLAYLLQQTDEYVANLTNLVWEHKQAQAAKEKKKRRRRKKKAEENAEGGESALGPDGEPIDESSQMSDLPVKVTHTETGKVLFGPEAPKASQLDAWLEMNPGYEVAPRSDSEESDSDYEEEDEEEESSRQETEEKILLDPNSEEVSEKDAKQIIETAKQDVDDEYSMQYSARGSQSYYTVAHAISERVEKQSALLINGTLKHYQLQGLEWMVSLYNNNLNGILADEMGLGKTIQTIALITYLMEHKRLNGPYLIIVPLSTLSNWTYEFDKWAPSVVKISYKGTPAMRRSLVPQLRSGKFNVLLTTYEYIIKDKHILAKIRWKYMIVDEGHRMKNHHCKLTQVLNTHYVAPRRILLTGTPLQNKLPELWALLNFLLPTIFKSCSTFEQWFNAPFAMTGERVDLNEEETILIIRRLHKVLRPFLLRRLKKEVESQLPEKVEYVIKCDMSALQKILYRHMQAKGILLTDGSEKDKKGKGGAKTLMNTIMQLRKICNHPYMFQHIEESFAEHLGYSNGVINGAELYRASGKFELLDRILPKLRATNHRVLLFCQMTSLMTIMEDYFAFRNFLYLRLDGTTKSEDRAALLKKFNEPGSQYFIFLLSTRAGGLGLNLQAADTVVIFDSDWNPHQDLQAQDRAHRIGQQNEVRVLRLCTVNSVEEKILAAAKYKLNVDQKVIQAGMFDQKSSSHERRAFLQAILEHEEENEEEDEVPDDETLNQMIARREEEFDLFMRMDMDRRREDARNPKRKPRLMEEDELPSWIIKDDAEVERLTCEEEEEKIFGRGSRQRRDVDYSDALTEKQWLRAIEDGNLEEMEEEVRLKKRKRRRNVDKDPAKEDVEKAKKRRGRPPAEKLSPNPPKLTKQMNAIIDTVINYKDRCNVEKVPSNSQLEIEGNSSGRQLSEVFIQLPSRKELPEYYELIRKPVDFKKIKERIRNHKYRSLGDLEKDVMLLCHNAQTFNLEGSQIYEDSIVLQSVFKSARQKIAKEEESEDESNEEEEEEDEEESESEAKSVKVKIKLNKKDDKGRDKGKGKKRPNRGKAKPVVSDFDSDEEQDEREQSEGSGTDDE

IC50 [1] | BRM Max % Inhibition ([1]; Table 6) | IC50 [2] | BRG1 Max % Inhibition ([2]; Table 6) | BRM Max % Inhibition ([1]; Table 5) | BRG1 Max % Inhibition ([2]; Table 5) | SMILES
100 to 1000 nM | >70% | 100 to 1000 nM | >60% |  |  | Nc1ccc(C(=O)NCC(=O)Nc2nc(-c3cccc(N4CCC(C(=O)O)CC4)c3)cs2)cc1 [Compound 187, 1-[3-[2-[[2-[(4-aminobenzoyl)amino]acetyl]amino]thiazol-4-yl]phenyl]piperidine-4-carboxylic acid]
< 100 nM | >95% | < 100 nM | >95% |  |  | Nc1ccc(C(=O)NCC(=O)Nc2nc(-c3cccc(-c4cccc(CO)c4)c3)cs2)cc1 [Compound 154, 4-amino-N-(2-((4-(3′-(hydroxymethyl)-[1,1′-biphenyl]-3-yl)thiazol-2-yl)amino)-2-oxoethyl)benzamide]
< 100 nM | >95% | < 100 nM | >95% |  |  | Cn1cnc2ccc(-c3csc(NC(=O)CNC(=O)c4ccc(N)cc4)n3)cc2c1=O [Compound 148, 4-amino-N-(2-((4-(3-methyl-4-oxo-3,4-dihydroquinazolin-6-yl)thiazol-2-yl)amino)-2-oxoethyl)benzamide]
100 to 1000 nM | >95% | 1000 to 10000 nM | >80% |  |  | Cn1cnc(-c2cccc(-c3csc(NC(=O)CNC(=O)c4ccc(N)cc4)n3)c2)c1 [Compound 220, 4-amino-N-[2-[[4-[3-(1-methylimidazol-4-yl)phenyl]thiazol-2-yl]amino]-2-oxo-ethyl]benzamide]
100 to 1000 nM | >90% | 100 to 1000 nM | >70% |  |  | CS(=O)(=O)c1cccc(C(=O)NCC(=O)Nc2nc(-c3cccc(-c4nccs4)c3)cs2)c1 [Compound 98, 3-(methylsulfonyl)-N-(2-oxo-2-((4-(3-(thiazol-2-yl)phenyl)thiazol-2-yl)amino)ethyl)benzamide]
< 100 nM | >95% | < 100 nM | >95% |  |  | COC(=O)Cc1cc(-c2cccc(-c3csc(NC(=O)CNC(=O)c4ccc(N)cc4)n3)c2)ccn1 [Compound 177, methyl 2-(4-(3-(2-(2-(4-aminobenzamido)acetamido)thiazol-4-yl)phenyl)pyridin-2-yl)acetate]
100 to 1000 nM | >90% | 100 to 1000 nM | >70% |  |  | CC(OC1CCOCC1)c1cccc(-c2csc(NC(=O)CNC(=O)c3ccc(N)cc3)n2)c1 (centres unmarked) [Compound 235, 4-amino-N-[2-oxo-2-[[4-[3-(1-tetrahydropyran-4-yloxyethyl)phenyl]thiazol-2-yl]amino]ethyl]benzamide]
100 to 1000 nM | >90% | 100 to 1000 nM | >90% |  |  | Nc1ccc(C(=O)NCC(=O)Nc2nc(-c3ccc4c(c3)OCCO4)cs2)cc1 [Compound 109, 4-amino-N-(2-((4-(2,3-dihydrobenzo[b][1,4]dioxin-6-yl)thiazol-2-yl)amino)-2-oxoethyl)benzamide]
1000 to 10000 nM |  | > 10000 nM |  | >80% | >60% | CCC[C@H](NC(=O)c1cccc(S(=O)(=O)N(C)C)c1)C(=O)Nc1nc(-c2ccccc2)cs1 [Compound 17, 3-(dimethylsulfamoyl)-N-[(1S)-1-[(4-phenylthiazol-2-yl)carbamoyl]butyl]benzamide]
< 100 nM | >90% | < 100 nM | >80% |  |  | Nc1ccc(C(=O)NCC(=O)Nc2nc(-c3cccc(COc4ccncc4)c3)cs2)cc1 [Compound 197, 4-amino-N-[2-oxo-2-[[4-[3-(4-pyridyloxymethyl)phenyl]thiazol-2-yl]amino]ethyl]benzamide]
< 100 nM | >95% | < 100 nM | >95% |  |  | COc1cc(-c2cccc(-c3csc(NC(=O)CNC(=O)c4ccc(N)cc4)n3)c2)ccn1 [Compound 146, 4-amino-N-(2-((4-(3-(2-methoxypyridin-4-yl)phenyl)thiazol-2-yl)amino)-2-oxoethyl)benzamide]
< 100 nM | >90% | < 100 nM | >90% |  |  | Nc1ccc(C(=O)NCC(=O)Nc2nc(-c3ccnc(-c4ccncc4)c3)cs2)cc1 [Compound 217, 4-amino-N-[2-oxo-2-[[4-[2-(4-pyridyl)-4-pyridyl]thiazol-2-yl]amino]ethyl]benzamide]
< 1000 nM |  | > 10000 nM |  | >70% | >30% | Cc1ccc(C(=O)NCC(=O)Nc2nc(-c3ccccc3)cs2)cc1S(C)(=O)=O [Compound 19, 4-methyl-3-(methylsulfonyl)-N-(2-oxo-2-((4-phenylthiazol-2-yl)amino)ethyl)benzamide]

The next lines start with the molecule.

SMILES | IC50 [1] | BRM Max % Inhibition ([1]; Table 6) | IC50 [2] | BRG1 Max % Inhibition ([2]; Table 6) | BRM Max % Inhibition ([1]; Table 5) | BRG1 Max % Inhibition ([2]; Table 5)
CS(=O)(=O)c1cccc(C(=O)NCC(=O)Nc2nc(-c3cccc(-c4ccncc4)c3)cs2)c1 [Compound 89, 3-(methylsulfonyl)-N-(2-oxo-2-((4-(3-(pyridin-4-yl)phenyl)thiazol-2-yl)amino)ethyl)benzamide] | < 100 nM | >80% | 100 to 1000 nM | >80% |  | 
CN(C)CCn1ccc2ccc(-c3csc(NC(=O)CNC(=O)c4ccc(N)cc4)n3)cc2c1=O [Compound 167, 4-amino-N-(2-((4-(2-(2-(dimethylamino)ethyl)-1-oxo-1,2-dihydroisoquinolin-7-yl)thiazol-2-yl)amino)-2-oxoethyl)benzamide] | 100 to 1000 nM | >95% | 100 to 1000 nM | >95% |  | 
CSCC[C@H](NC(=O)c1ccccc1)C(=O)Nc1nc(-c2cccc(-c3ccncc3)c2)cs1 [Compound 97, (S)-N-(4-(methylthio)-1-oxo-1-((4-(3-(pyridin-4-yl)phenyl)thiazol-2-yl)amino)butan-2-yl)benzamide] | 100 to 1000 nM | >70% | 100 to 1000 nM | >70% |  | 
CS(=O)(=O)c1cccc(C(=O)NCC(=O)Nc2nc(-c3ccc4cc[nH]c(=O)c4c3)cs2)c1 [Compound 88, 3-(methylsulfonyl)-N-(2-oxo-2-((4-(1-oxo-1,2-dihydroisoquinolin-7-yl)thiazol-2-yl)amino)ethyl)benzamide] | 100 to 1000 nM | >95% | 1000 to 10000 nM | >95% |  | 
CN(C)S(=O)(=O)c1cccc(C(=O)NCC(=O)Nc2nc(-c3ccc4c(c3)OCCO4)cs2)c1 [Compound 15, N-(2-((4-(2,3-dihydrobenzo[b][1,4]dioxin-6-yl)thiazol-2-yl)amino)-2-oxoethyl)-3-(N,N-dimethylsulfamoyl)benzamide] | 1000 to 10000 nM |  | 1000 to 10000 nM |  | >80% | >60%
COC(=O)C(C)(C)n1ccc(-c2cccc(-c3csc(NC(=O)CNC(=O)c4ccc(N)cc4)n3)c2)n1 [Compound 209, methyl 2-[3-[3-[2-[[2-[(4-aminobenzoyl)amino]acetyl]amino]thiazol-4-yl]phenyl]pyrazol-1-yl]-2-methyl-propanoate] | < 100 nM | >95% | < 100 nM | >95% |  | 
NCCNc1cc(-c2cccc(-c3csc(NC(=O)CNC(=O)c4ccc(N)cc4)n3)c2)ccn1 [Compound 160, 4-amino-N-(2-((4-(3-(2-((2-aminoethyl)amino)pyridin-4-yl)phenyl)thiazol-2-yl)amino)-2-oxoethyl)benzamide] | 100 to 1000 nM | >95% | 100 to 1000 nM | >95%, |  | 
Cc1cccc(-c2csc(NC(=O)CNC(=O)c3cccc(S(=O)(=O)N(C)C)c3)n2)c1 [Compound 1, 3-(dimethylsulfamoyl)-N-[2-[[4-(m-tolyl)thiazol-2-yl]amino]-2-oxo-ethyl]benzamide] | 1000 to 10000 nM |  | 1000 to 10000 nM |  | >95% | >70%
CSCC[C@H](NC(=O)c1ccc(N)cc1)C(=O)Nc1nc(-c2ccc(C#N)cc2)cs1 [Compound 107, (S)-4-amino-N-(1-((4-(4-cyanophenyl)thiazol-2-yl)amino)-4-(methylthio)-1-oxobutan-2-yl)benzamide] | 100 to 1000 nM | >95% | 1000 to 10000 nM | >95% |  | 
CSCC[C@H](NC(=O)c1ccc(N)cc1)C(=O)Nc1nc(-c2cc(C#N)cc(-c3ccccc3)c2)cs1 [Compound 116, (S)-4-amino-N-(1-((4-(5-cyano-[1,1′-biphenyl]-3-yl)thiazol-2-yl)amino)-4-(methylthio)-1-oxobutan-2-yl)benzamide] | 100 to 1000 nM | >95% | 100 to 1000 nM | >95% |  | 
CN1CCN(c2cccc(-c3csc(NC(=O)CNC(=O)c4ccc(N)cc4)n3)c2)CC1=O [Compound 204, 4-amino-N-[2-[[4-[3-(4-methyl-3-oxo-piperazin-1-yl)phenyl]thiazol-2-yl]amino]-2-oxo-ethyl]benzamide] | 100 to 1000 nM | >80% | 100 to 1000 nM | >70% |  | 
CNC(=O)c1cccc(-c2csc(NC(=O)CNC(=O)c3cccc(S(=O)(=O)N(C)C)c3)n2)c1 [Compound 4, 3-[2-[[2-[[3-(dimethylsulfamoyl)benzoyl]amino]acetyl]amino]thiazol-4-yl]-N-methyl-benzamide] | 1000 to 10000 nM |  | > 10000 nM |  | >90% | >70%
CN(C)CCN(C)c1cc(-c2cccc(-c3csc(NC(=O)CNC(=O)c4ccc(N)cc4)n3)c2)ccn1 [Compound 191, 4-amino-N-[2-[[4-[3-[2-[2-(dimethylamino)ethyl-methyl-amino]-4-pyridyl]phenyl]thiazol-2-yl]amino]-2-oxo-ethyl]benzamide] | < 100 nM | >95% | 100 to 1000 nM | >95% |  | 
